As to `COCc1cc(-c2ncc3[nH]c4cccc(OCc5ccccc5)c4c3c2COC)no1`, the melting point (usually the temperature of the solid-liquid transition) fell in the range of 133 to 135 °C. Compound `O=C(NC(Cc1ccccc1)C(=O)O)c1cc(-c2ccc(OCc3ccccc3)cc2)[nH]n1` (stereo unspecified) registered a melting point of 196 to 200 °C. Under `O=C(NN1CCCN(C(=O)OCc2ccccc2)CC1)c1ccc(F)cc1` stands 116 to 118 °C. Under `CNC(=O)CCn1ncccc1=O` stands 94 to 96 °C; under `CCOc1ccc(S(=O)(=O)N(CCO)c2ccccc2/C=C/c2ccncc2)cc1`, 167 to 169 °C; under `O=c1c2c([nH]n1-c1cc(OCC3CCCSC3)c(Cl)cc1F)CCCC2` (stereo unspecified), 96 to 100 °C. Under `FC(F)(F)c1c[nH]cc1-c1cccc(Cl)c1Cl` stands 63 to 65 °C; under `O=C1CS(=O)(=O)C(C(=O)Nc2ccc(Cl)cc2)Cc2cc3c(cc21)OCCO3` (stereo unspecified), 273 to 274 °C; under `Cc1cc(SCc2ccc(-c3ccccc3)cc2)ccc1OCC(=O)O`, 138 °C. `COc1cc(-c2nc3ccc(OCCN4CCCCC4)cc3n2Cc2ccccc2C(F)(F)F)cc(OC)c1OC`: the melting point stood at 167 °C. `COc1cc(Oc2ccc(C(=O)N(C(C)C)C3CCCCC3)cc2)cc(OC)c1OC` came in with a melting point of 124 °C. Under `O=C(O)C1(c2ccc(Cl)cc2)OCC(c2ccc(F)cc2)(c2ccc(F)cc2)CO1` stands 228 to 230 °C; under `COc1ccccc1C=CC=C(CC(N)C(=O)O)C(=O)O` (stereo unspecified), 187 to 189 °C.

`O=C(OCCN1CCCCC1)c1c[nH]c2ccccc12` displayed a melting point of 123 to 125 °C. Under `CC(C)(C)c1cc(SC2CC(=O)N(c3ccc(N4C(=O)CC(Sc5cc(C(C)(C)C)c(O)c(C(C)(C)C)c5)C4=O)cc3)C2=O)cc(C(C)(C)C)c1O` (stereo unspecified) stands 274 to 278 °C; under `COc1ccc2c(c1)C(=O)c1ccccc1C2=O`, 195 to 197 °C.

`CCOC(=O)C(=O)Nc1cc2c3c(cccc3c1[N+](=O)[O-])C(=O)OC2=O`: the melting point lay within 221 to 222 °C.

`Nc1c(-c2ccc(Cl)cc2)nc2c(Cl)cc(Cl)cc2c1C(=O)O` had a melting point of 260 to 261 °C.

Consider `O=C(C=Cc1cccnc1)NCCCCN1CCCN(C(c2ccccc2)c2ccccc2)CC1`, for which the melting point was in the range of 149 to 151 °C. In the case of `CCCn1nc(OCc2ccc3ccccc3n2)cc1CO`, the melting point lay in the range of 95 to 96 °C.

With `CNC(=O)c1cccc(NC(=O)Cc2cccc(F)c2)c1`, the melting point is 147 to 148 °C. Under `CC(=O)Nc1cccc2c1NC(=O)C2c1ccccc1` (stereo unspecified) stands 258 to 262 °C. Consider `Cc1nccc(O)c1[N+](=O)[O-]`, for which the melting point came to 140 °C.

Regarding `O=C1CC[C@@H](C(=O)N[C@@H](Cc2c[nH]cn2)C(=O)N[C@@H](Cc2c[nH]c3ccccc23)C(=O)OCc2ccccc2)N1`, the melting point is 250 to 252 °C. Compound `Cc1c(F)ncn1CC(=O)c1ccccc1` yielded a melting point of 84.5 °C.

On to `COC(=O)C1CN(C(=O)[C@H](CO)NC(=O)OCc2ccccc2)C1`, for which the melting point is 90 to 95 °C. Under `COCCn1cc(C(=O)NCc2ccc(Cl)cc2)c(=O)c2cc(CN(C)C[C@@H](O)c3ccco3)sc21` stands 121 to 122 °C; under `CCCCCCCCCCCCCCOc1ccc(CC(=O)OCC)cc1OC`, 40 to 41 °C. Under `O=c1[nH]c2cc(Cl)ccc2c(O)c1-c1cccc(Cc2ccc(O)cc2)c1` stands 288 to 292 °C; under `O=C(O)CCCCCOc1ccccc1C(=O)c1ccccc1O`, 89 to 91 °C; under `CC(C)(c1ccc(Oc2cccc(N)c2)cc1)c1ccc(Oc2cccc(N)c2)cc1`, 106 to 108 °C. Compound `N#Cc1ccc(C=C2CCNC2=O)cc1` displayed a melting point of 260 °C.

Consider `O=C1N(N2CCOCC2)c2ccccc2C1(O)Cc1ccncc1` (stereo unspecified), for which the melting point was in the range of 198 to 200 °C. The compound `CC1COc2cc(NC(=O)OCc3ccccc3)ccc2N1C(=O)OCc1ccccc1` (stereo unspecified) gave a melting point of 104 to 106 °C. Take `CC1C(c2ccc([N+](=O)[O-])cc2)CC(=O)N1C` (stereo unspecified): the melting point was 94 to 95 °C. Under `CCCc1ccccc1OCCCOc1ccc2c(=O)cc(C(=O)O)oc2c1` stands 164 to 166 °C; under `CCCCCC(=O)Oc1c(-c2ccc(-c3ccccc3)cc2)nc2ccc(F)cc2c1C(=O)O`, 179 to 206 °C; under `O=C1C(=O)c2ccc(Cl)cc2C2=C1SCC1(CCN(C(=O)c3cccc(Cl)c3)CC1)O2`, 125 to 130 °C. Compound `O=C(OCc1ccccc1)C1CC(=C2NC(=O)N(c3ccccc3)C2=O)c2ccc(Cl)cc2N1` (stereo unspecified) came in with a melting point greater than 220 °C. Consider `COC(=O)CC=CC=CC=CC=CC=Cc1ccsc1`, for which the melting point lay in the range of 206 to 208 °C.

In the case of `CCOC(=O)C=Cc1cnc(N(Cc2ccc(OC)c(OC)c2)C(=O)OC(C)(C)C)n2nc(-c3ccco3)nc12`, the melting point lay within 124 to 129 °C. Under `CNc1c(N)n(CC(C)(C)C)c(=O)[nH]c1=O` stands 217 to 220 °C.

On to `CCc1nn2ccccc2c1N(CCCF)C(C)=O`, for which the melting point lay within 76.6 to 79.6 °C. Under `O=C(C=C1CCCN1)c1ccccc1` stands 115 to 116 °C; under `CC(C)n1c(C=O)c(-c2ccc(F)cc2)c(-c2ccc(F)cc2)c1C(=O)OCc1ccccc1`, 94 to 95 °C. Compound `CCCOc1cccc(C2(c3cc(C(=O)CC)n(CC)c3)N=C(N)N(C)C2=O)c1` (stereo unspecified) yielded a melting point of 95 °C.

On to `Cc1cc(C)cc(CON2C(=O)COc3ccc(C=C4SC(=S)NC4=O)cc32)c1`, for which the melting point is greater than 300 °C. Under `CS(=O)(=O)c1ccc(Cl)c(-c2n[nH]c3nc(Oc4ccc(F)cc4F)ncc23)c1` stands 252 °C; under `NC1=NC(=O)N(c2ccccc2)C1`, 277 to 279 °C; under `CN(Cc1sc2c(=O)c(C(=O)NCc3ccc(Cl)cc3)cn(C)c2c1COCC[Si](C)(C)C)CC(O)c1ccc2ccccc2n1` (stereo unspecified), 163 to 166 °C. As to `C1=C(c2cccc(CNCCOc3cccc4ccoc34)c2)CCC1`, the melting point turned out to be 126 °C. Under `COc1cc(C=O)ccc1OCc1nc(-c2cccc(OS(C)(=O)=O)c2)oc1C` stands 136 to 137 °C; under `Cc1ccc(S(=O)(=O)N(Cc2cc(C(C)(C)C)c(O)c(C(C)(C)C)c2)c2cccnc2Cl)cc1`, 117 to 119 °C; under `CC(=NO)NC/C(F)=C\CC[C@H](N)C(=O)O`, 198 to 200 °C. The compound `CCN(CC)CCCNc1nnc(C)c2c1cc1n2CCCC1` registered a melting point of 171 to 172 °C. Under `CC(=O)NC[C@H]1CN(c2ccc(N3CCN(C(=O)CO)CC3)c(F)c2)C(=O)O1` stands 87 to 90 °C; under `O=C(O)C(Cc1ccccc1F)Cc1ccccc1F`, 110 to 111 °C.

`O=C1CCC(N2Cc3c(NCc4cccc(Cl)c4)cccc3C2=O)C(=O)N1` (stereo unspecified) displayed a melting point of 253 to 255 °C. Under `CC1CC(N)=NN1c1nc2c(s1)CCCC2` (stereo unspecified) stands 247 to 249 °C.

Compound `CCCCN(CCCC)c1ccc(C=Cc2ccc(C=CC3=C(C#N)C(=C(C#N)C#N)OC3(C)C(F)(F)F)s2)c(OC)c1` (stereo unspecified) showed a melting point of 191 to 193 °C. `CS/C=C(/C)n1c(=O)n(Cc2cc(C(F)(F)F)cc(C(F)(F)F)c2)c2ccccc21` registered a melting point of 148 °C. Under `CC(C)(c1ccc(Oc2cccc3c2C(=O)NC3=O)cc1)c1ccc(Oc2cccc3c2C(=O)NC3=O)cc1` stands 258 to 260 °C; under `CN(C)CCCC1(C#N)c2ccccc2COc2ccccc21` (stereo unspecified), 112 to 114 °C. Under `CCS(=O)(=O)CCC(=O)NNC(=O)N1Cc2ccccc2Oc2ccc(F)cc21` stands 191 to 193 °C; under `Nc1nc2ccccc2c2c1nc(-c1ccccc1)n2CCOc1ccccc1`, 182 to 185 °C.

Consider `COc1ccc(C2CCN(CCCCc3ccccc3)CC2)cc1`, for which the melting point lay in the range of 48 to 50 °C. `O=C(O)CCCCn1ccc2cc([N+](=O)[O-])ccc21` gave a melting point of 141 to 142 °C.

`CNc1ncc(CO)c(NC2CC2)n1` registered a melting point of 139 to 140 °C. Under `CC(C)Sc1c(C(N)=O)n(C)c2ccc(O)cc12` stands 60 to 62 °C.

Compound `CCCCCCNC(=O)c1ccc(N2N=C(C)C(=CNc3ccccc3CC)C2=O)cc1` had a melting point of 62.1 °C. `Cc1cc(-c2nc3cccnn3c2-c2ccnc(NC(=O)CC(F)(F)F)c2)ccc1F` displayed a melting point of 220 to 221 °C.

In turn, `CC(=O)OC1CSC(Oc2ccc(-c3ccc(F)nc3)nc2)C(OC(C)=O)C1OC(C)=O` (stereo unspecified) showed a melting point of 185 °C. Under `CCn1c(CCSC)nc(N2CCc3ccccc3CC2)c(C#N)c1=O` stands 102 to 104 °C. `CC(=O)OC1=C(OC(C)=O)C(=O)c2cc(Cl)ccc2C1=O` yielded a melting point of 110 to 111 °C. Under `NS(=O)(=O)c1ccc(CNC(=O)c2cccnc2Oc2cccc(-n3cnnn3)c2)cc1` stands 72 to 74 °C; under `Cc1nnc(SCCCC(=O)NC/C=C\COc2cc(CN3CCCCC3)ccn2)s1`, 65 to 68 °C.

Consider `Cc1ccc(C=CC(=O)c2ccc3c(c2)C(C)(C)CCC3(C)C)cc1`, for which the melting point lay within 153 to 154 °C. Regarding `N#Cc1nn(-c2c([N+](=O)[O-])cc(C(F)(F)F)cc2[N+](=O)[O-])c(N)c1SC(F)(F)F`, the melting point worked out at 214 °C.

`O=C1Cc2ccccc2SN1` had a melting point of 175 °C. In turn, `COc1cc(C)c2c(c1)C(=O)CCC2` came in with a melting point of 55 °C. With `Cc1ccc(-c2c(C3CCN(C)CC3)[nH]c(=O)c3ccccc23)cc1`, the melting point lay in the range of 244 to 246 °C. Consider `Cc1cc(C)c2c(c1O)C(=O)C(c1ccccc1)C2` (stereo unspecified), for which the melting point lay in the range of 90.5 to 91 °C.

The compound `CCOC(=O)c1cc(-c2ccc(Br)cc2)c(=O)n(Cc2ccc(Cl)cc2Cl)c1` registered a melting point of 152 to 154 °C. Under `CCN(CC)C(=O)Nc1ccc(S(=O)(=O)N2C(=O)C(NCCCCCNC(C)=O)(c3ccccc3Cl)c3cc(Cl)ccc32)cc1` (stereo unspecified) stands 195 to 198 °C. For the compound `C#CCOc1ccc2c(C)cc(=O)oc2c1C(=O)C=Cc1cccc(OC)c1`, the melting point is 154 to 156 °C. With `O=C(O)c1ccc(-c2ccc3cc(O)c(C45CC6CC(CC(C6)C4)C5)cc3c2)cc1`, the melting point was 295 to 300 °C.

For the origin of these results see a melting point compilation (Tetko et al.; mined from patent text by program, amines drawn as free bases though some values may be those of a salt).
